Assays:
[1] = target: Phosphatidylinositol 4,5-bisphosphate 3-kinase catalytic subunit alpha isoform (Homo sapiens, UniProt P42336); test: KINOMEscan Enzyme Binding Assays
Description: (§1) Kinase enzyme binding affinities of compounds disclosed herein were determined using the KINOMEscan technology performed by DiscoveRx Corporation, San Diego, Calif., USA (www.kinomescan.com).

[2] = target: Phosphatidylinositol 4,5-bisphosphate 3-kinase catalytic subunit beta isoform (Homo sapiens, UniProt P42338); test: KINOMEscan Enzyme Binding Assays
Phosphatidylinositol 4,5-bisphosphate 3-kinase catalytic subunit beta isoform, sequence (P42338 whole entry, canonical isoform): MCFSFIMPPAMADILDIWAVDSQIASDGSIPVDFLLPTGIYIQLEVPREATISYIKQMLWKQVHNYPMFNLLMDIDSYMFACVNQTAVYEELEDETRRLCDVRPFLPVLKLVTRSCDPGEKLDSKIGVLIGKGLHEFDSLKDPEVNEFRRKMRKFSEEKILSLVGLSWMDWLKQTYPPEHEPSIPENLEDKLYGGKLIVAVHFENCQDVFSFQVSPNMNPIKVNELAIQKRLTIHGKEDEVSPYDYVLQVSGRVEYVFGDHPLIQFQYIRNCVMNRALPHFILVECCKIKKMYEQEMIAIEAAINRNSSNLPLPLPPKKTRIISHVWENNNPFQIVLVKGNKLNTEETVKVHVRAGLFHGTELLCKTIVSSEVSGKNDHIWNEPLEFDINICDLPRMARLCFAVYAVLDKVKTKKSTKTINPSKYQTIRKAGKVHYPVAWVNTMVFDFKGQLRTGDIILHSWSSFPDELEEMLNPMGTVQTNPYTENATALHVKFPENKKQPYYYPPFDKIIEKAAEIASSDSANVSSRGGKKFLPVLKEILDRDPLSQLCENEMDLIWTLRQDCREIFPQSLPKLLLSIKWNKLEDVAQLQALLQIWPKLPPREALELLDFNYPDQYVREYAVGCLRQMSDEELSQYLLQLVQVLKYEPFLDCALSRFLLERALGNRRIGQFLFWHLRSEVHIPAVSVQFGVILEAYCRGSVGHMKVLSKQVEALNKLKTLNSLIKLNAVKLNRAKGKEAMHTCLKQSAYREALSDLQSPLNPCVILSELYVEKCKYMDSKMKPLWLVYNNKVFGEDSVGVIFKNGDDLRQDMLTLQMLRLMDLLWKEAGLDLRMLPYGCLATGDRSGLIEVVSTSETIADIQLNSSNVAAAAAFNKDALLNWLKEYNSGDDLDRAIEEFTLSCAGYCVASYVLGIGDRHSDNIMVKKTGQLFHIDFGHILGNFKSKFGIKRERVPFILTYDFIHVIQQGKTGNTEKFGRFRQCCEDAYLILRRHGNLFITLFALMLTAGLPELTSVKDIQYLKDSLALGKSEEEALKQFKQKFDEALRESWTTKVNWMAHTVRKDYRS
Description: as §1

Phosphatidylinositol 4,5-bisphosphate 3-kinase catalytic subunit alpha isoform, sequence (P42336 whole entry, canonical isoform): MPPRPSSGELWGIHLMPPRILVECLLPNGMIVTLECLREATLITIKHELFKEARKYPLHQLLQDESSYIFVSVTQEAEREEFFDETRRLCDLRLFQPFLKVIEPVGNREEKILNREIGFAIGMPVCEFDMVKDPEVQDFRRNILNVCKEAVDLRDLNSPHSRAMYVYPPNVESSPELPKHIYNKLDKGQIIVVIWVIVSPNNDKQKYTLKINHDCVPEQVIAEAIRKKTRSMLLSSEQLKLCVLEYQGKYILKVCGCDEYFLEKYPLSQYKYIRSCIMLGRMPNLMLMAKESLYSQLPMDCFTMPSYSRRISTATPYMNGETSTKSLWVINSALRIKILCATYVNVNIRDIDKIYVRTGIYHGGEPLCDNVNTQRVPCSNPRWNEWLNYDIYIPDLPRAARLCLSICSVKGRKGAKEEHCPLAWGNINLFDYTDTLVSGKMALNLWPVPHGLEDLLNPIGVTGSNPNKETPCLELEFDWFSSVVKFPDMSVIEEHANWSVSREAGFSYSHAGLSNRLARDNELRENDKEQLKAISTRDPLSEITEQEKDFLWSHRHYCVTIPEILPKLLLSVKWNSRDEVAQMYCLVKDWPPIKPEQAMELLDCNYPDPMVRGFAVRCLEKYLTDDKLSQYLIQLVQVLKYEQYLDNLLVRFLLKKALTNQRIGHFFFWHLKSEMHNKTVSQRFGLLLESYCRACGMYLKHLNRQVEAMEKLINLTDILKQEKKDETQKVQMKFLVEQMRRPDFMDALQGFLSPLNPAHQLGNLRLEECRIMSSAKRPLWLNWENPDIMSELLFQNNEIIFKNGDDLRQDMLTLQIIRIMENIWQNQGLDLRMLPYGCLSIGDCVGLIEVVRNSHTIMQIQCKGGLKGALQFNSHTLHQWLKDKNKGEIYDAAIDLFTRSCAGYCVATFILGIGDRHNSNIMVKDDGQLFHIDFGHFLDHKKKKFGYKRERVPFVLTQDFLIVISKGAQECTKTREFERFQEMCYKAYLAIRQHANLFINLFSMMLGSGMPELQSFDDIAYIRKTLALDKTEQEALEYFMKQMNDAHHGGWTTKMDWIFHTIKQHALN

SMILES | Kd [1] | Kd [2]
Cc1c(Cc2c(CO)nc3c(-c4cnc[nH]4)cc(N4CCOCC4)nn23)cccc1C(F)(F)F [US10087187, Compound 19] | 886 nM | 1.9 nM
CCc1c(F)cccc1Cc1c(CNCCO)nc2c(N)cc(N3CCOCC3)nn12 [US10087187, Compound 101] | 5890 nM | 6.2 nM

— BindingDB's records for patent US10087187 (Janssen Pharmaceutica, 2018)
